Tests used:
[1] = Resistance index, ratio of IC50 for chloroquine-resistant Plasmodium falciparum W2 infected in red blood cells to IC50 for chloroquine-sensitive Plasmodium falciparum 3D7 infected in red blood cells; format: functional
[2] = tested on: Plasmodium falciparum; test: Antimalarial activity against chloroquine-sensitive Plasmodium falciparum 3D7 infected in red blood cells after 72 hrs by SYBR green 1 staining based fluorometric assay; format: functional, cell-based; conditions: 3D7, 72 h
[3] = tested on: Plasmodium falciparum; test: Antimalarial activity against chloroquine-resistant Plasmodium falciparum W2 infected in red blood cells after 72 hrs by SYBR green 1 staining based fluorometric assay; format: functional, cell-based; conditions: W2, 72 h
[4] = Cytotoxicity against HUVEC assessed as decrease in cell viability at 0.01 to 50 umol/l after 24 hrs by trypan blue dye based assay; format: toxicity; conditions: human
[5] = Stability of the compound in pH 7.4 solution up to 48 hrs; format: physicochemical; conditions: buffer, pH 7.4, 48 h

Row | Structure (SMILES) | Ratio IC50 [1] | IC50 [2] | IC50 [3] | Activity [4] | Stability [5]
1 | COC1=CC(=O)N(CCCNc2ccnc3cc(Cl)ccc23)C1(O)Cc1ccc(OC)c(OC)c1 (stereo not given) | 1.5 | 511 nM | 760 nM |  | 
2 | O=C1C=C(OCc2ccccc2)C(O)(Cc2ccc(F)cc2)N1CCCNc1ccnc2cc(Cl)ccc12 (stereo not given) | 1.4 | 42 nM | 58 nM | Non-Toxic | Stable
3 | O=C1C=C(OCc2ccccc2)C(O)(Cc2ccc(C(F)(F)F)cc2)N1CCCNc1ccnc2cc(Cl)ccc12 (stereo not given) | 1 | 36 nM | 36 nM | Non-Toxic | Stable
4 | CN(CCNc1ccnc2cc(Cl)ccc12)CCN1C(=O)C=C(OCc2ccccc2)C1(O)Cc1ccc(C(F)(F)F)cc1 (stereo not given) | 1 | 40 nM | 42 nM | Non-Toxic | Stable
5 | CN(CCNc1ccnc2cc(Cl)ccc12)CCN1C(=O)C=C(OCc2ccccc2)C1(O)Cc1ccccc1 (stereo not given) | 1.2 | 54 nM | 64 nM | Non-Toxic | Stable
6 | COC1=CC(=O)N(CCCNc2ccnc3cc(Cl)ccc23)C1(O)Cc1ccc(F)cc1 (stereo not given) | 3.5 | 191 nM | 670 nM |  | 
7 | COC1=CC(=O)N(CCCNc2ccnc3cc(Cl)ccc23)C1(O)Cc1ccc(C(C)(C)C)cc1 (stereo not given) | 2.3 | 91 nM | 214 nM |  | 
8 | O=C1C=C(OCc2ccccc2)C(O)(Cc2ccccc2)N1CCCNc1ccnc2cc(Cl)ccc12 (stereo not given) | 1.3 | 143 nM | 191 nM |  | 
9 | COC1=CC(=O)N(CCN(C)CCNc2ccnc3cc(Cl)ccc23)C1(O)Cc1ccc(C(F)(F)F)cc1 (stereo not given) | 2.4 | 14 nM | 34 nM | Non-Toxic | Stable
10 | COC1=CC(=O)N(CCCNc2ccnc3cc(Cl)ccc23)C1(O)Cc1ccccc1 (stereo not given) | 2.8 | 300 nM | 827 nM |  | 
11 | COC1=CC(=O)N(CCN2CCN(CCNc3ccnc4cc(Cl)ccc34)CC2)C1(O)Cc1ccc(C(F)(F)F)cc1 (stereo not given) | 0.8 | 19 nM | 16 nM | Non-Toxic | Stable

From ChEMBL document CHEMBL3862008, “7-Chloro-4-aminoquinoline γ-hydroxy-γ-lactam derived-tetramates as a new family of antimalarial compounds” (Bioorg Med Chem Lett, 2016)
